According to patent US11589603B2, “Powdered nutritional product containing branched-chain amino acids and a sugar alcohol” (Abbott Laboratories, priority 2015, dated 2023):
Values joined by “and” are separate entries in the source; they are usually repeats but may differ in a detail not shown here. Equal values may be shown once.

Tests used:
[1] = Example 4: aqueous dissolution of branched-chain amino acids in a powdered nutritional product with varying myo-inositol, LC/UV of filtrate; format: physicochemical; conditions: powdered nutritional product; particularly evident at 30 seconds across all concentrations
Protocol: (§1) The LC/UV system used to perform the tests comprised the following: 1) Column: YMC ODS-AQ, 4.6 x 250 mm, 5 μm, Waters P/N AQ12S052546WT; 2) Mobile Phase: Milli-Q Plus water; 3) Flow Rate: 0.4 mL/minute; 4) Temperature: 40° C.; 5) Detection: UV at 192 nm; 6) Injection: 2 μL of filtrate; and 7) Run Time: 20 minutes.
Example 4 evaluates the effect that myo-inositol concentration has on the aqueous dissolution of branched-chain amino acids (valine, isoleucine, and leucine) in a powdered nutritional product. One serving (17.6 grams) of the powdered nutritional product contains 7.00 grams of a branched-chain amino acid blend comprising 50 wt. % leucine, 25 wt. % isoleucine, and 25 wt. % valine. A serving of the powdered nutritional product with a specified amount of myo-inositol was added to 16 fluid ounces of Milli-Q Plus water at 21° C. and stirred at 400 rpm. At each specified time point, an aliquot was obtained and filtered through a 0.45 μm PTFE membrane (Pall Life Sciences, Acrodisc CR 25, P/N 4501), and the filtrate was tested for valine, isoleucine, and leucine using the LC/UV method as described in Example 3.

[2] = Example 5: effect of inositol isomers on dissolution of L-leucine, LC/UV of filtrate; format: physicochemical; conditions: 3.50 g L-leucine with 0.1 g/16 oz. inositol isomer, water 21° C., 400 rpm
Protocol: as §1, with “[…];” for “P/N AQ12S052546WT;”

- effect of addition of myo-inositol on rate of dissolution of the branched-chain amino acids [1]: enhanced the rate of dissolution
- Leu dissolved at 30 seconds (g/16 oz.) ([2]; 30 seconds): 0.465 g/16 oz. and 0.495 g/16 oz.
- Leu dissolved at 60 seconds (g/16 oz.) ([2]; 60 seconds): 0.838 g/16 oz. and 0.781 g/16 oz.
SMILES: O[C@H]1[C@H](O)[C@@H](O)[C@H](O)[C@@H](O)[C@H]1O [myo-inositol]
- Leu dissolved at 60 seconds (% of total Leu) ([2]; 60 seconds): 23.9 % of total Leu and 22.3 % of total Leu
